Each structure is given as a SMILES string. Read-outs that look alike come from different tables or passages of the source.

The record followed here is article PMC8579695, “The Stringent Response Inhibits 70S Ribosome Formation in Staphylococcus aureus by Impeding GTPase-Ribosome Interactions” (mBio, 2021).

For test [1], the target named is RsgA (Staphylococcus aureus, UniProt P67682). Kind of test: DRaCALA binding of 32P-labeled nucleotides to 6×His-tagged RsgA. The conditions noted are these: for Bmax, RsgA: Bmax values indicate the fraction bound. The method, then: (§1) The RA-GTPases RsgA, Era, RbgA, and HflX can bind to the guanosine nucleotides GTP, GDP, ppGpp, and pppGpp. Our previous work observed higher binding affinities for ppGpp over GTP, pointing toward a difference in binding between 5′ di- or triphosphate nucleotides ([27]). […] Furthermore, these previous experiments were performed using recombinant proteins fused to large MBP tags, which could impact binding affinity determination. To examine the nucleotide binding affinities of these RA-GTPases for GDP in comparison to ppGpp, pppGpp, and GTP, and in the absence of a large tag, we used a differential radial capillary action of ligand assay (DRaCALA) with recombinant RsgA, RbgA, Era, and HflX fused to a smaller 6× His tag (Fig. 1B; see also Fig. S2A to C in the supplemental material) ([36]). In each case, the affinities of 5′ diphosphate-containing GDP and ppGpp were similar in the low μM range and were 2- to 6-fold higher than the affinities of either GTP or pppGpp (Table 1).
(§2) Supplementary file : FIG S2 Examination of the binding of GDP, ppGpp, GTP, and pppGpp to RA-GTPases by DRaCALA. (A to C) Determination of binding affinities and Kd values for ^32P-labeled nucleotides to purified recombinant 6×His-tagged RsgA (A), Era (B), and HflX (C). Kd values were determined from the binding curves as previously described ([36]). (D to F) DRaCALA binding assay of recombinant RsgA (D), Era (E), and HflX (F) binding to ^32P-labeled GTP, ppGpp, and pppGpp in the presence or absence of 100 μM cold competitors (GTP, GDP, ppGpp, pppGpp, and ATP). All experiments were carried out in triplicate, with error bars representing standard deviations. Download FIG S2, TIF file, 0.9 MB.
(§3) The synthesis of (p)ppGpp and differential radial capillary action of ligand assay (DRaCALA) binding and competition assays were performed as described previously ([27]), using recombinant, 6×His-tagged protein at the concentrations specified in the figure legends.

Test [2] deals with HflX (Staphylococcus aureus, UniProt Q2FYY9). In words: DRaCALA binding of 32P-labeled nucleotides to 6×His-tagged HflX. As to conditions: mean ± SEM; for Bmax, HflX: Bmax values indicate the fraction bound. The method, then:
as §1, §2, §3

Test [3] has as its system HflX association to the 30S and 50S ribosomal subunits. Kind of test: In vitro ribosome association assay (sucrose gradient, α-His Western immunoblot), HflX. As to conditions: 40 μM nucleotide; compared to apo, GTP, or GMPPNP-bound states. Format: binding, Staphylococcus aureus. An excerpt:
It is well characterized that rRNA transcription decreases during the stringent response ([39]). In addition, the GTPase activity of ribosome assembly cofactors is inhibited by (p)ppGpp, both of which contribute to a reduction in mature ribosomes within the cell ([27]). To examine mechanistically how (p)ppGpp-GTPase interactions affect the ability of RA-GTPases to associate with ribosomal subunits, we examined the association of each GTPase to either the 30S or 50S ribosomal subunit in the presence of GDP, GTP, ppGpp, and pppGpp, as well as GMPPNP, a nonhydrolyzable analogue of GTP. The production and isolation of immature subunits, which can comprise several different immature states, introduces a large degree of heterogeneity, and so here we, and others, use homogenous mature particles as a system to examine the binding event, rather than the role of GTPase activity in downstream maturation ([11], [12], [29], [40], [41]). His-tagged GTPases were preincubated with highly pure, salt-washed 70S S. aureus ribosomes in a low-magnesium buffer to encourage ribosomal subunit dissociation, and the amount of each GTPase associated with each of the subunits was quantified by Western immunoblotting with anti-His antibodies after sucrose gradient separation. […]
FIG 2 (p)ppGpp and GDP binding reduces RA-GTPase association to the ribosome. […] After subunit separation and precipitation, bound proteins were detected in the 30S fraction using HRP-conjugated α-His antibodies. […] Bound proteins were detected in the 50S fraction using HRP-conjugated α-His antibodies. […]
A 500 nM concentration of recombinant 6×His-tagged RA-GTPase was incubated at room temperature for 5 min with 200 nM S. aureus 70S ribosomes in dissociation buffer (20 mM Tris [pH 7.5], 120 mM NH4Cl, 1.5 mM MgCl2, 2 mM β-mercaptoethanol) in the apo form and in the presence of 40 μM GTP, GMPPNP, GDP, ppGpp, or pppGpp. […] Gradients were fractionated by upward displacement of 250-μl aliquots, which were analyzed for RNA content at an absorbance of 260 nm. […]

Sequence of HflX (Q2FYY9 entry or part of it): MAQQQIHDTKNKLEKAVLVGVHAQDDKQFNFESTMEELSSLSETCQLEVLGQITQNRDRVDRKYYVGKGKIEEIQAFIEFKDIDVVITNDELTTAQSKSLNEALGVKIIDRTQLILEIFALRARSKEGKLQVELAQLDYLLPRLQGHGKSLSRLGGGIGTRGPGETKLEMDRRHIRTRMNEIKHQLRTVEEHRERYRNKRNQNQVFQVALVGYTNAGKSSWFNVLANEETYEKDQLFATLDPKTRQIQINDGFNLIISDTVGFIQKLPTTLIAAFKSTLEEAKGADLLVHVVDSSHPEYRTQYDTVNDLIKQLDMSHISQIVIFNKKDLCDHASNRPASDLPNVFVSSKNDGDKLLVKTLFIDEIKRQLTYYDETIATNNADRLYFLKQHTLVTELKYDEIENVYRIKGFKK
Sequence of RsgA (P67682 whole entry, the tested form may be a part): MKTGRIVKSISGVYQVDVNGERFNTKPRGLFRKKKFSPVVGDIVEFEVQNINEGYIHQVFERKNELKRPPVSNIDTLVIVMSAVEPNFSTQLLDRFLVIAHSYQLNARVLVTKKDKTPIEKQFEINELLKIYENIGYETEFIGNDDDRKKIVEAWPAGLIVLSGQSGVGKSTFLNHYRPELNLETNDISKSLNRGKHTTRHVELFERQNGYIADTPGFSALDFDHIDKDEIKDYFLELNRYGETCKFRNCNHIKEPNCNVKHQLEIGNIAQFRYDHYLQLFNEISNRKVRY

Compound `Nc1nc2c(ncn2[C@@H]2O[C@H](COP(=O)(O)OP(=O)(O)OP(=O)(O)O)[C@@H](OP(=O)(O)OP(=O)(O)O)[C@H]2O)c(=O)[nH]1` [pppGpp] yielded a Kd in test [1] of 10.1 ± 2.2 µM. Further, in test [1] (mean ± SEM), the “Bmax, RsgA” value was determined as 0.4 ± 0.0. For the same compound, the “Bmax, HflX” value in test [2] was 0.5 ± 0.2. In addition, the “reduction in ribosome binding of HflX” value in test [3] came to 2 fold.
For `Nc1nc2c(ncn2[C@@H]2O[C@H](COP(=O)(O)OP(=O)(O)O)[C@@H](OP(=O)(O)OP(=O)(O)O)[C@H]2O)c(=O)[nH]1` [ppGpp], the Kd in test [1] (mean ± SEM, 32P-labeled nucleotide, 6×His-tagged protein, read-out: Kd, RsgA) came out at 2.2 ± 0.2 µM; in test [2] (32P-labeled nucleotide, 6×His-tagged protein, read-out: Kd, HflX), 3.4 ± 0.4 µM. In addition, the “Bmax, RsgA” value in test [1] (mean ± SEM) worked out at 0.9 ± 0.0. The “Bmax, HflX” value in test [2] is recorded as 0.6 ± 0.0. Also, in test [3], the “reduction in ribosome binding of HflX” value is 2 fold.

By Kd is commonly meant the free concentration of one partner at which half of the binding sites on the other are occupied at equilibrium, for simple one-to-one binding.
